The results in this text go back to article PMC5526551, “New hydrazonoindolin-2-ones: Synthesis, exploration of the possible anti-proliferative mechanism of action and encapsulation into PLGA microspheres” (PLoS ONE, 2017).

One data set concerns A549. As to the kind of experiment: Anti-proliferative activity, cell growth inhibition (CellTiterGlo, 72 h). It counts as cell-based, human. To be noted: for inhibition at 30 µM: Homo sapiens, A549, read-out: Cell growth inhibitory activity, A-549. How it is done: (§1) Twenty compounds, i.e. 4a-o and 7a-e, were analyzed for cancer cell growth inhibitory activity. These studies were carried out using cells derived from human lung, colon and breast tumors (A549, HT-29 and ZR-75 cells, respectively). This initial assessment of activity tested each compound in quadruplicate at a single concentration of 30 μM, if solubility permitted.
(§2) A549, HT-29, ZR-75 were obtained from the American Type Culture Collection (ATCC). Cells were harvested from 90-95% confluent 10 cm dishes, and diluted in growth media (RPMI-1640 supplemented with 5% fetal bovine serum). An appropriate concentration of cells were prepared to add 1,250 cells in a volume of 25 µL per well in tissue culture treated Griener 384-well microplates, then incubated overnight at 37°C. Compound 7e was diluted to a concentration of 30 µM in DMSO. Concentrated dosing solutions of twice the final concentration were prepared by dilution of the DMSO stocks 1:500 in growth media. Two-fold serial dilutions were then prepared in medium containing 0.2% DMSO to maintain a constant concentration of vehicle throughout the concentration range of the compound. Each of these was added in an equal volume (25 µL) to four wells on each cell assay plate, along with the vehicle control. The highest concentration for serial dilutions of the positive control (sunitinib) was prepared exactly as the experimental compound 7e. Cells were incubated with the compounds for a further 72 h.
(§3) At the end of the treatment period, assay plates were allowed to cool to RT for 10 min prior to the addition of 25 µL per well Promega CellTiterGlo reagent, followed by additional 10 min incubation at RT. The resulting luminescence was quantitated using a Molecular Devices Spectramax Paradigm.
(§4) Percent growth inhibition was calculated as follows, where 100 represents the viability of vehicle treated control samples:
(§5) The potency of compounds was determined using the non-linear dose response algorithm (four-parameter logistic fit) with GraphPad Prism 5 software.
On the technique in general: ATP-based viability assays read luminescence as a measure of living cells.

The test system of a further data set is HT-29. The description is as above. It counts as cell-based, human. As to conditions: for inhibition at 30 µM: Homo sapiens, HT-29, read-out: Cell growth inhibitory activity, HT-29. Here is the method: as §1, §2, §3, §4, §5
In the next data set the test system is ZR-75. The description is as above. As to conditions: for inhibition at 30 µM: Homo sapiens, ZR75, read-out: Cell growth inhibitory activity, ZR-75. It is filed as cell-based, human. Here is the method: as §1, §2, §3, §4, §5
Data set [1] concerns HT-29, ZR-75 and A-549 cell lines. As to the kind of experiment: Average anti-proliferative activity over the three cancer cell lines. It is filed as cell-based, human. As to conditions: average of HT-29, ZR-75, A-549; for inhibition at 30 µM: Homo sapiens, read-out: Average Growth Inhibition %. Here is the method: as §1
Therefore, they were subjected to quantitative inhibitory concentration 50% (IC50) determination for their cell growth inhibitory activity towards the A549, HT-29 and ZR-75 cancer cell lines.
as §2, §5

The term melting point denotes the temperature of the solid-liquid transition. On to `COc1cc(C=NN=C2C(=O)Nc3ccc(Cl)cc32)ccc1O` [Compound 4h, 5-Chloro-3-((4-hydroxy-3-methoxybenzylidene)hydrazono)indolin-2-one], for which the melting point was 269 to 271 °C. Moreover, in the data set with A549 (30 μM, quadruplicate), the inhibition at 30 µM was 37.3 ± 8.1%. Besides, the inhibition at 30 µM in the data set with HT-29 (30 μM, quadruplicate) came out at 41.6 ± 10.4%. The inhibition at 30 µM with ZR-75 (30 μM, quadruplicate) amounted to 30.9 ± 9.5%. Besides, the inhibition at 30 µM in data set [1] (30 μM) came to 36.6%.
With `COc1ccc(C=NN=C2C(=O)Nc3ccc(Cl)cc32)cc1OC` [Compound 4i, 5-Chloro-3-((3,4-dimethoxybenzylidene)hydrazono)indolin-2-one], the melting point was 282 to 284 °C. In addition, the inhibition at 30 µM in the data set with A549 (30 μM, quadruplicate) was 4.9 ± 3.3%. Moreover, the inhibition at 30 µM with HT-29 (30 μM, quadruplicate) was -3.6 ± 9.7%. Also, the inhibition at 30 µM in the data set on ZR-75 (30 μM, quadruplicate) stood at 33 ± 13%. The inhibition at 30 µM in data set [1] (30 μM) was 11.4%.
Take `COc1ccc(C=NN=C2C(=O)Nc3ccc(Cl)cc32)cc1` [Compound 4f, 5-Chloro-3-((4-methoxybenzylidene)hydrazono)indolin-2-one]: the melting point lay in the range of 282 to 284 °C. Also, the inhibition at 30 µM with A549 (30 μM, quadruplicate) came out at 8.4 ± 10%. For the same compound, the inhibition at 30 µM in the data set with HT-29 (30 μM, quadruplicate) was 6.1 ± 8.6%. Besides, the inhibition at 30 µM with ZR-75 (30 μM, quadruplicate) was 10.9 ± 14%. Further, the inhibition at 30 µM in data set [1] (30 μM) came to 8.4%.
Compound `COc1ccc(C=NN=C2C(=O)Nc3ccc(Cl)cc32)cc1O` [Compound 4g, 5-Chloro-3-((3-hydroxy-4-methoxybenzylidene)hydrazono)indolin-2-one] yielded a melting point of 278 to 280 °C. For the same compound, the inhibition at 30 µM with A549 (30 μM, quadruplicate) worked out at 44.2 ± 16.5%. The inhibition at 30 µM in the data set on HT-29 (30 μM, quadruplicate) turned out to be 33.5 ± 11.3%. Moreover, the inhibition at 30 µM in the data set on ZR-75 (30 μM, quadruplicate) was 46 ± 6.4%. Moreover, the inhibition at 30 µM in data set [1] (30 μM) came out at 41.2%.
`COc1ccc(C=NN=C2C(=O)Nc3ccccc32)cc1OC` [Compound 4d, 3-((3,4-Dimethoxybenzylidene)hydrazono)indolin-2-one] gave a melting point of 276 to 278 °C. In addition, the inhibition at 30 µM in the data set with A549 (30 μM, quadruplicate) turned out to be 82.5 ± 6.9%. In addition, the inhibition at 30 µM with HT-29 (30 μM, quadruplicate) was 81.7 ± 5.2%. Besides, in the data set on ZR-75 (30 μM, quadruplicate), the inhibition at 30 µM is 58.8 ± 4.3%. The inhibition at 30 µM in data set [1] (30 μM) turned out to be 74.3%.
For `COc1ccc(C=NN=C2C(=O)Nc3ccc(Br)cc32)cc1OC` [Compound 4n, 5-Bromo-3-((3,4-dimethoxybenzylidene)hydrazono)indolin-2-one], in that order: 280 to 282 °C, 0.1 ± 5.1%, -2 ± 10.2%, 12.5 ± 21.9% and 3.5%.
In the case of `COc1ccc(C=NN=C2C(=O)Nc3ccccc32)cc1O` [Compound 4b, 3-((3-Hydroxy-4-methoxybenzylidene)hydrazono)indolin-2-one], the melting point was in the range of 273 to 275 °C. Also, in the data set with A549 (30 μM, quadruplicate), the inhibition at 30 µM is 66.3 ± 5.7%. For the same compound, the inhibition at 30 µM in the data set with HT-29 (30 μM, quadruplicate) amounted to 81.9 ± 3%. Besides, the inhibition at 30 µM with ZR-75 (30 μM, quadruplicate) was determined as 59.3 ± 11.1%. In addition, the inhibition at 30 µM in data set [1] (30 μM) stood at 69.2%.
Consider `COc1cc(C=NN=C2C(=O)Nc3ccccc32)ccc1O` [Compound 4c, 3-((4-Hydroxy-3-methoxybenzylidene)hydrazono)indolin-2-one], for which the inhibition at 30 µM in the data set on A549 (30 μM, quadruplicate) amounted to 54.2 ± 5%; in the data set with HT-29 (30 μM, quadruplicate), 74.9 ± 5.3%; in the data set on ZR-75 (30 μM, quadruplicate), 55.4 ± 23.4%; in data set [1] (30 μM) it was 61.5%.
By IC50 is commonly meant the concentration at which inhibition is half-maximal. For `CN1C(=O)C(=NN=C2C(=O)Nc3ccc(Cl)cc32)c2ccccc21` [Compound 7b, 5-Chloro-3-((methyl-2-oxoindolin-3-ylidene)hydrazono)indolin-2-one], the “Cell growth inhibitory activity, A-549” value with A549 (30 μM, quadruplicate) stood at 95.2 ± 2.8%. Besides, the IC50 with A549 (72 h, read-out: IC50 A-549) was 5.19 µM; with HT-29 (72 h) it was 5.38 µM; in the data set with ZR-75 (72 h) it was 3.75 µM; in data set [1] it was 4.77 µM. Also, the “Cell growth inhibitory activity, HT-29” value with HT-29 (30 μM, quadruplicate) worked out at 95.5 ± 3.4%. Besides, in the data set with ZR-75 (30 μM, quadruplicate), the “Cell growth inhibitory activity, ZR-75” value was 95.5 ± 6.0%. Besides, the “Average Growth Inhibition %” value in data set [1] (30 μM) is recorded as 95.4%.
